The subject of series [1] is Trypanosoma cruzi. In words: Antiprotozoal activity against Trypanosoma cruzi Tulahuen C4 at pH 7.4 by microplate assay. The format is functional, organism-based.
Series [2] deals with Plasmodium falciparum. In words: Antimalarial activity against Plasmodium falciparum K1 at pH 7.4 by microplate assay. The format is functional, organism-based.
The test system of series [3] is Trypanosoma brucei rhodesiense. In words: Antiprotozoal activity against Trypanosoma brucei rhodesiense STIB900 at pH 7.4 by microplate assay. It counts as functional, organism-based.
The subject of series [4] is Leishmania donovani. In words: Antiprotozoal activity against Leishmania donovani MHOM/ET/67/L82 at pH 7.4 by microplate assay. The format is functional, organism-based.
The test system of series [5] is L6. Kind of series: Cytotoxicity against rat L6 cells. It counts as cell-based.
The nature of series [6]: Selectivity index, ratio of IC50 for rat L6 cells to IC50 for Plasmodium falciparum K1. It counts as toxicity, cell-based. The note with it: read-out: Ratio IC50.
A short description of series [7]: Selectivity index, ratio of IC50 for rat L6 cells to IC50 for Trypanosoma cruzi Tulahuen C4. It counts as toxicity, cell-based. The note with it: read-out: Ratio IC50.
The nature of series [8]: Selectivity index, ratio of IC50 for rat L6 cells to IC50 for Trypanosoma brucei rhodesiense STIB900. The format is toxicity, cell-based. The conditions noted are these: read-out: Ratio IC50.
Series [9] can be described thus: Selectivity index, ratio of IC50 for rat L6 cells to IC50 for Leishmania donovani MHOM/ET/67/L82. It counts as toxicity, cell-based. The conditions noted are these: read-out: Ratio IC50.

pIC50: −log10 of the molar value. Where only a bound is given, the exact number is not on record here.

`O=C(Cn1ccnc1[N+](=O)[O-])NCc1ccccc1` [BENZNIDAZOLE]: the pIC50 in [1] was 6.05.
Regarding `CCN(CC)c1ccc2nc3c4ccccc4/c(=N\c4ccc(OC)cc4)cc-3oc2c1`, the negative-log IC50 (pIC50) was 7.40 in [2]; 4.69 in series [1]; 4.83 in [3]; 5.28 in series [4]; 4.24 in series [5]. Also, the selectivity ratio stood at 1420 in series [6], 2.82 in series [7], 3.84 in series [8] and 10.9 in series [9].
Take `CCN(CC)c1ccc2nc3c4ccccc4/c(=N\c4ccc(C)cc4)cc-3oc2c1`: the pIC50 in series [2] is 6.60; in series [1], 4.68; in [3] it was 4.44; in series [4] it was 4.97; in series [5], 3.87. Moreover, the selectivity ratio in series [6] was found to be 531; in [7], 6.42; in series [8] it was 3.71; in series [9] it was 12.5.
With `CCN(CC)c1ccc2nc3c4ccccc4/c(=N\c4ccc([N+](=O)[O-])cc4C#N)cc-3oc2c1`, the pIC50 is 6.69 in [2]; 3.84 in series [1]; 3.83 in series [3]; 4.04 in [4]; 4.21 in series [5]. The selectivity ratio in [6] stood at 302; in series [7] it was 0.43; in series [8], 0.42; in series [9] it was 0.68.
Take `CCN(CC)c1ccc2nc3c4ccccc4/c(=N\c4cccc(Cl)c4)cc-3oc2c1`: the pIC50 in series [2] is 6.68; in [1], 4.12; in series [3] it was 3.89; in [4] it was 4.54; in [5], 3.89. For the same compound, the selectivity ratio in series [6] turned out to be 617; in series [7] it was 1.68; in [8], 1; in series [9], 4.5.
As to `CCN(CC)c1ccc2nc3c4ccccc4/c(=N\c4cccc(OC)c4)cc-3oc2c1`, the pIC50 in series [2] was 7.35; in [1], 3.84; in series [3], 4.95; in series [4], 5.54; in [5] it was 4.40. The selectivity ratio in series [6] worked out at 883; in series [7], 0.28; in series [8] it was 3.52; in series [9] it was 13.9.
For `CCN(CC)c1ccc2nc3c4ccccc4/c(=N\c4ccc([N+](=O)[O-])cc4Cl)cc-3oc2c1`, the pIC50 in [2] was 5.71; in series [1], 4.96; in series [3], 3.73; in series [4], 4.15; in [5] it was 4.84. Besides, the selectivity ratio in series [6] was 8; in [7], 1.34; in [8], 0.08; in series [9], 0.21.
Take `CCN(CC)c1ccc2nc3c4ccccc4/c(=N\c4ccc([N+](=O)[O-])cc4)cc-3oc2c1`: the pIC50 in series [2] is 6.87; in [1], 4.24; in [3] it was 3.70; in series [4] it was below 3.69; in series [5], 4.28. Moreover, the selectivity ratio is 386 in [6], 0.91 in series [7], 0.26 in [8] and below 0.25 in series [9].
For `CCN(CC)c1ccc2nc3c4ccccc4/c(=N\c4ccccc4)cc-3oc2c1`, the negative logarithm of the IC50 (pIC50) in [2] was 6.68; in series [1], below 3.64; in series [3] it was 4.05; in series [4], 4.70; in series [5], 3.75. Besides, the selectivity ratio in series [6] was 863; in series [7], below 0.79; in series [8], 2.03; in series [9], 8.94.
Take `CCN(CC)c1ccc2nc3c4ccccc4/c(=N\c4ccccc4Cl)cc-3oc2c1`: the pIC50 in series [2] is 6.67; in [1], 4.10; in series [3] it was 4.07; in series [4], 4.63; in series [5], 4.25. The selectivity ratio worked out at 261 in series [6], 0.71 in series [7], 0.66 in [8] and 2.41 in series [9].

As a reminder, the pIC50 is the IC50 on a negative log10 scale, so that one unit is a factor of ten. Higher therefore signals a small IC50.
